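Exposure lasted 48 hours, with cells grown in 96-well plates and compounds tested at five concentrations. The concentration for 50% growth inhibition is given as GI50. TGI marks complete inhibition of growth.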
Key:
Assay in all cases: DTP human tumour cell line panel, 48 h
[1] = system: 786-0 renal
[2] = system: A498 renal
[3] = system: A549 NSCLC
[4] = system: ACHN renal
[5] = system: BT-549 breast
[6] = system: CAKI-1 renal
[7] = system: CCRF-CEM leukemia
[8] = system: COLO 205 colon
[9] = system: DU-145 prostate
[10] = system: EKVX NSCLC
[11] = system: HCC-2998 colon
[12] = system: HCT-116 colon
[13] = system: HCT-15 colon
[14] = system: HL-60(TB) leukemia
[15] = system: HOP-62 NSCLC
[16] = system: HOP-92 NSCLC
[17] = system: HS 578T breast
[18] = system: HT29 colon
[19] = system: IGROV1 ovarian
[20] = system: K-562 leukemia
[21] = system: KM12 colon
[22] = system: LOX IMVI melanoma
[23] = system: M14 melanoma
[24] = system: MALME-3M melanoma
[25] = system: MCF7 breast
[26] = system: MDA-MB-231 breast
[27] = system: MDA-MB-435
[28] = system: MOLT-4 leukemia
[29] = system: NCI-H460 lung
[30] = system: NCI-H522 lung
[31] = system: NCI/ADR-RES ovarian
[32] = system: OVCAR-3 ovarian
[33] = system: OVCAR-4 ovarian
[34] = system: OVCAR-5 ovarian
[35] = system: OVCAR-8 ovarian
[36] = system: PC-3 prostate
[37] = system: RPMI-8226 leukemia
[38] = system: RXF 393 renal
[39] = system: SF-268 CNS
[40] = system: SF-295 CNS
[41] = system: SF-539 CNS
[42] = system: SK-MEL-2 melanoma
[43] = system: SK-MEL-28 melanoma
[44] = system: SK-MEL-5 melanoma
[45] = system: SK-OV-3 ovarian
[46] = system: SN12C renal
[47] = system: SNB-19 CNS
[48] = system: SNB-75 CNS
[49] = system: SR leukemia
[50] = system: SW-620 colon
[51] = system: T-47D breast
[52] = system: TK-10 renal
[53] = system: U251 CNS
[54] = system: UACC-257 melanoma
[55] = system: UACC-62 melanoma
[56] = system: UO-31 renal

Question: Which GI50 [1] does the source give for `Nc1nc(-c2cccc([N+](=O)[O-])c2)c(N=Nc2ccc(Br)cc2)s1` here?
Answer: 13.6 µM

Question: And the TGI [1]?
Answer: 27.5 µM

Question: And the GI50 [2]?
Answer: 16.7 µM

Question: What about the TGI [2] of the same compound?
Answer: 31.7 µM

Question: And the GI50 [3]?
Answer: 17 µM

Question: And the TGI [3]?
Answer: 35.1 µM

Question: And the GI50 [4]?
Answer: 14.2 µM

Question: What about the TGI [4] of the same compound?
Answer: 27.3 µM

Question: And the GI50 [5]?
Answer: 15.7 µM

Question: And the TGI [5]?
Answer: 40.8 µM

Question: What about the GI50 [6] of the same compound?
Answer: 12 µM

Question: What about the TGI [6] of the same compound?
Answer: 24.3 µM

Question: What about the GI50 [7] of the same compound?
Answer: 13.4 µM

Question: What about the TGI [7] of the same compound?
Answer: > 100 µM

Question: And the GI50 [8]?
Answer: 24.6 µM

Question: What about the TGI [8] of the same compound?
Answer: 94 µM

Question: And the GI50 [9]?
Answer: 8.14 µM

Question: And the TGI [9]?
Answer: 25.8 µM

Question: And the GI50 [10]?
Answer: 17.9 µM

Question: And the TGI [10]?
Answer: 64.1 µM

Question: What about the GI50 [11] of the same compound?
Answer: 18.7 µM

Question: What about the TGI [11] of the same compound?
Answer: 38.8 µM

Question: What about the GI50 [12] of the same compound?
Answer: 4.63 µM

Question: What about the TGI [12] of the same compound?
Answer: 16 µM

Question: And the GI50 [13]?
Answer: 5.57 µM

Question: And the TGI [13]?
Answer: 33.2 µM

Question: And the GI50 [14]?
Answer: 91.2 µM

Question: And the TGI [14]?
Answer: > 100 µM

Question: And the GI50 [15]?
Answer: 15.2 µM

Question: What about the TGI [15] of the same compound?
Answer: 29.8 µM

Question: What about the GI50 [16] of the same compound?
Answer: 10.1 µM

Question: And the TGI [16]?
Answer: 32.1 µM

Question: And the GI50 [17]?
Answer: 19.3 µM

Question: And the TGI [17]?
Answer: > 100 µM

Question: And the GI50 [18]?
Answer: 19.4 µM

Question: What about the TGI [18] of the same compound?
Answer: > 100 µM

Question: And the GI50 [19]?
Answer: 16.2 µM

Question: What about the TGI [19] of the same compound?
Answer: 47.8 µM

Question: What about the GI50 [20] of the same compound?
Answer: 10.3 µM

Question: And the TGI [20]?
Answer: > 100 µM

Question: What about the GI50 [21] of the same compound?
Answer: 16.1 µM

Question: What about the TGI [21] of the same compound?
Answer: > 100 µM

Question: What about the GI50 [22] of the same compound?
Answer: 4 µM

Question: What about the TGI [22] of the same compound?
Answer: 26.6 µM

Question: What about the GI50 [23] of the same compound?
Answer: 17.3 µM

Question: And the TGI [23]?
Answer: 38.8 µM

Question: What about the GI50 [24] of the same compound?
Answer: 16.3 µM

Question: What about the TGI [24] of the same compound?
Answer: 30.5 µM

Question: And the GI50 [25]?
Answer: 12.7 µM

Question: And the TGI [25]?
Answer: > 100 µM

Question: What about the GI50 [26] of the same compound?
Answer: 7.74 µM

Question: And the TGI [26]?
Answer: 24 µM

Question: And the GI50 [27]?
Answer: 20.5 µM

Question: What about the TGI [27] of the same compound?
Answer: 57.2 µM

Question: What about the GI50 [28] of the same compound?
Answer: 12 µM

Question: And the TGI [28]?
Answer: > 100 µM

Question: And the GI50 [29]?
Answer: 12.8 µM

Question: And the TGI [29]?
Answer: 44.6 µM

Question: What about the GI50 [30] of the same compound?
Answer: 10.9 µM

Question: What about the TGI [30] of the same compound?
Answer: 35.8 µM

Question: What about the GI50 [31] of the same compound?
Answer: 7.93 µM

Question: What about the TGI [31] of the same compound?
Answer: > 100 µM

Question: What about the GI50 [32] of the same compound?
Answer: 18.6 µM

Question: And the TGI [32]?
Answer: 41.3 µM

Question: And the GI50 [33]?
Answer: 11.1 µM

Question: And the TGI [33]?
Answer: 63.3 µM

Question: What about the GI50 [34] of the same compound?
Answer: 20.3 µM

Question: And the TGI [34]?
Answer: 54.4 µM

Question: And the GI50 [35]?
Answer: 10.2 µM

Question: What about the TGI [35] of the same compound?
Answer: 33.6 µM

Question: What about the GI50 [36] of the same compound?
Answer: 20.2 µM

Question: What about the TGI [36] of the same compound?
Answer: 86 µM

Question: What about the GI50 [37] of the same compound?
Answer: 21 µM

Question: And the TGI [37]?
Answer: > 100 µM

Question: And the GI50 [38]?
Answer: 12.6 µM

Question: And the TGI [38]?
Answer: 25.4 µM

Question: And the GI50 [39]?
Answer: 19.1 µM

Question: What about the TGI [39] of the same compound?
Answer: 99.4 µM

Question: What about the GI50 [40] of the same compound?
Answer: 23 µM

Question: What about the TGI [40] of the same compound?
Answer: 49.8 µM

Question: What about the GI50 [41] of the same compound?
Answer: 3 µM

Question: What about the TGI [41] of the same compound?
Answer: 10.4 µM

Question: What about the GI50 [42] of the same compound?
Answer: 18.6 µM

Question: What about the TGI [42] of the same compound?
Answer: 51.8 µM

Question: And the GI50 [43]?
Answer: 18.7 µM

Question: What about the TGI [43] of the same compound?
Answer: 47 µM

Question: And the GI50 [44]?
Answer: 16.9 µM

Question: And the TGI [44]?
Answer: 31.5 µM

Question: What about the GI50 [45] of the same compound?
Answer: 16 µM

Question: What about the TGI [45] of the same compound?
Answer: 30.1 µM

Question: What about the GI50 [46] of the same compound?
Answer: 14.1 µM

Question: What about the TGI [46] of the same compound?
Answer: 37.2 µM

Question: What about the GI50 [47] of the same compound?
Answer: 20.3 µM

Question: And the TGI [47]?
Answer: 50.1 µM

Question: And the GI50 [48]?
Answer: 18.4 µM

Question: And the TGI [48]?
Answer: 41.1 µM

Question: What about the GI50 [49] of the same compound?
Answer: 21.6 µM

Question: What about the TGI [49] of the same compound?
Answer: > 100 µM

Question: What about the GI50 [50] of the same compound?
Answer: 15.4 µM

Question: And the TGI [50]?
Answer: 78.8 µM

Question: What about the GI50 [51] of the same compound?
Answer: 9.84 µM

Question: And the TGI [51]?
Answer: 46 µM

Question: And the GI50 [52]?
Answer: 21.6 µM

Question: What about the TGI [52] of the same compound?
Answer: 36.5 µM

Question: And the GI50 [53]?
Answer: 14.2 µM

Question: And the TGI [53]?
Answer: 33.6 µM

Question: What about the GI50 [54] of the same compound?
Answer: 22.4 µM

Question: And the TGI [54]?
Answer: 50.8 µM

Question: And the GI50 [55]?
Answer: 15.1 µM

Question: And the TGI [55]?
Answer: 41.4 µM

Question: What about the GI50 [56] of the same compound?
Answer: 12.7 µM

Question: And the TGI [56]?
Answer: 25.2 µM

Source: PubChem BioAssay (NCI)
